Our source for the inhibition values is patent publication US20170190705A1, “Compositions and Methods for Inhibiting BMP” (THE BRIGHAM AND WOMAN'S HOSPITAL, INC., priority 2014, published 2017).

What all share (assay type): biochemical
One assay concerns the target BRK (Homo sapiens, UniProt Q13882). The assay can be described thus: Kinome profiling BRK. Particulars: read-out: Inhibitory activity BRK; for inhibition at 0.1 µM: 100 nM. How it is done:
(§1) . The kinome-wide selectivity was determined following the methods previously reported by Mohedas et al., ACS Chem Biol 2013, 8, 1291-1302 and Sanvitale et al., PLoS One 2013, 8, e62721.

The target in a further assay is PKC-α (Homo sapiens, UniProt P17252). The assay can be described thus: Kinome profiling PKC-α. Particulars: read-out: Inhibitory activity PKC-α; for inhibition at 0.1 µM: 100 nM. The protocol:
as §1

Another assay addresses T1, SGK1 (Homo sapiens, UniProt O00141).
T1 sequence (O00141 1-431): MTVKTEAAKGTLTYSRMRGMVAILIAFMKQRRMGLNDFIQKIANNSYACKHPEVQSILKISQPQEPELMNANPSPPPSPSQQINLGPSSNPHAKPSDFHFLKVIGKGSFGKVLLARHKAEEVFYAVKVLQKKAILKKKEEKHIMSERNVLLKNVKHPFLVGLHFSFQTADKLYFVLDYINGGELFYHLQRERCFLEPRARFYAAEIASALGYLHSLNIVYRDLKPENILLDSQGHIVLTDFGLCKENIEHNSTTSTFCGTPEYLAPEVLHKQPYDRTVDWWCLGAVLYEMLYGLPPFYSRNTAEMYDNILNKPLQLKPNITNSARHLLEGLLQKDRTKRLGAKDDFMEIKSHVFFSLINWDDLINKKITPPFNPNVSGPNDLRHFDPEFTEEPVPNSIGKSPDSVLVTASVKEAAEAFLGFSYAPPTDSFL
Description: Kinome profiling SGK1. Particulars: read-out: Inhibitory activity SGK1; for inhibition at 0.1 µM: 100 nM. How it is done:
as §1

For another assay, the target named is PIM-2 (Homo sapiens, UniProt Q9P1W9). Description: Kinome profiling PIM-2. Particulars: read-out: Inhibitory activity PIM-2; for inhibition at 0.1 µM: 100 nM. The protocol: as §1
The target of another assay is T2, GRK7 (Homo sapiens, UniProt Q8WTQ7).
T2 sequence (Q8WTQ7 1-553): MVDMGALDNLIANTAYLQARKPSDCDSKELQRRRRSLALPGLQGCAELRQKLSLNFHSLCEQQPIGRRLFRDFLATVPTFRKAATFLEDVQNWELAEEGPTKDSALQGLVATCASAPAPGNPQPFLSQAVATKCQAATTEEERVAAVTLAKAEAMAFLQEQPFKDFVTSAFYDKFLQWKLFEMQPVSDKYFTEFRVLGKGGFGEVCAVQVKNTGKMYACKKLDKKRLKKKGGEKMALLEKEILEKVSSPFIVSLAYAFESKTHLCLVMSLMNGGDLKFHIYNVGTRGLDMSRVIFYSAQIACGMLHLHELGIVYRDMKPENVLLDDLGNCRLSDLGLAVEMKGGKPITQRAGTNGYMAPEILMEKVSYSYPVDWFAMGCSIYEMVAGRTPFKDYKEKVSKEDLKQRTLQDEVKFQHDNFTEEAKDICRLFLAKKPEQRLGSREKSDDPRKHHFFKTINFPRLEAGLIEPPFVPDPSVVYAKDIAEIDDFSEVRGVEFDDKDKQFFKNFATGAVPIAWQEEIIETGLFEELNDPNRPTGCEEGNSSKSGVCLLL
The assay can be described thus: Kinome profiling GRK7. Particulars: read-out: Inhibitory activity GRK7; for inhibition at 0.1 µM: 100 nM. How it is done:
as §1

Another assay deals with T3, AXL (Homo sapiens, UniProt P30530).
T3 sequence (P30530 26-894): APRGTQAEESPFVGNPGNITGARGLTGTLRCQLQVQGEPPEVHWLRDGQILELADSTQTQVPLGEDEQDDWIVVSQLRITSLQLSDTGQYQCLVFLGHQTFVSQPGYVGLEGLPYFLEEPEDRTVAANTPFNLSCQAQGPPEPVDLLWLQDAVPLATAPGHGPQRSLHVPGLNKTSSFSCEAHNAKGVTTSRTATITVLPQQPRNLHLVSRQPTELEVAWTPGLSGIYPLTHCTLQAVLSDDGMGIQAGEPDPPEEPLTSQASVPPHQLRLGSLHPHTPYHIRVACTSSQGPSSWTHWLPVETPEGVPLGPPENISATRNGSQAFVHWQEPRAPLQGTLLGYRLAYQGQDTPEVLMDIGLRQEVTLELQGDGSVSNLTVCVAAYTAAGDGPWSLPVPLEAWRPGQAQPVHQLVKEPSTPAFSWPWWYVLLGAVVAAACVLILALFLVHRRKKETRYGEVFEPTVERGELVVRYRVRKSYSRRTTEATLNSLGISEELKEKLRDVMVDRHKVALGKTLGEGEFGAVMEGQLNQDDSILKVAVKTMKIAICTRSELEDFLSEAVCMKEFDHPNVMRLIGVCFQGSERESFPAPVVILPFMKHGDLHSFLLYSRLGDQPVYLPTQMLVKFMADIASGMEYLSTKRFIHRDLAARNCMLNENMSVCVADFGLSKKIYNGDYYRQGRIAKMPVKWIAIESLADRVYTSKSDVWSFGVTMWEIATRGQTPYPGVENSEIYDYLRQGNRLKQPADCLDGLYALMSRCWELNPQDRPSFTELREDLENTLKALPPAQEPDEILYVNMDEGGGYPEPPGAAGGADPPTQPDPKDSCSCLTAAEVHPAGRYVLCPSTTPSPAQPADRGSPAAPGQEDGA
Description: Kinome profiling AXL. Particulars: read-out: Inhibitory activity AXL; for inhibition at 0.1 µM: 100 nM. The protocol: as §1

BRK, sequence (Q13882 whole entry): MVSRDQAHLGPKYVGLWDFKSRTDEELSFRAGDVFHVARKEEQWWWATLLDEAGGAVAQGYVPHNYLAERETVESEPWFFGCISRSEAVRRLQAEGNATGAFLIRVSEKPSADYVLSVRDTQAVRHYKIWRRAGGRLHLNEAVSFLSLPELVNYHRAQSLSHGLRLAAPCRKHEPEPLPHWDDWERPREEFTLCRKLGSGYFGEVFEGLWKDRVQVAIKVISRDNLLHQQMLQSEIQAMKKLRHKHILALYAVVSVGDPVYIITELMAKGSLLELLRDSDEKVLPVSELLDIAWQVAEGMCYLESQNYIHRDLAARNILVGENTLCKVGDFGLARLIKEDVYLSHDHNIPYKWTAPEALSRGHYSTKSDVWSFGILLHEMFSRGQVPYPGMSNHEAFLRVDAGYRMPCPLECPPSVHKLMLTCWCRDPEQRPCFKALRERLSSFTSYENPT
PIM-2, sequence (Q9P1W9 whole entry): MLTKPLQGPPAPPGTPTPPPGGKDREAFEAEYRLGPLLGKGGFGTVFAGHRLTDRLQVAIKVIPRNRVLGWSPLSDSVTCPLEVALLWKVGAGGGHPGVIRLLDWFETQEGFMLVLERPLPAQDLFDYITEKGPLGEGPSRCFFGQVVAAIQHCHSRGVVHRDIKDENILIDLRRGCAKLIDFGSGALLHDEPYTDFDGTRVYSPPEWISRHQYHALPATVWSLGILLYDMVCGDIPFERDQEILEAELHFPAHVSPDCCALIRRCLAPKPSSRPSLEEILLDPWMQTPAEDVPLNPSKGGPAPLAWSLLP

On to `COc1cc(-c2cc(-c3ccc(N4CCNCC4)cc3)cnc2N)cc(OC)c1OC` [Compound 15, 5-(4-(piperazin-1-yl)phenyl)-3-(3,4,5-trimethoxyphenyl)pyridin-2-amine], for which the inhibition at 0.1 µM was 43% on BRK; 1% on PKC-α; 3% at SGK1; 0% at PIM-2; 2% on GRK7; -4% on AXL. The inhibition at 1 µM at BRK was 92%; on PKC-α, 6%; at SGK1, 1%; on PIM-2 it was 0%; on GRK7, 0%; at AXL it was -1%.
On to `COc1cc(-c2cc(-c3ccc(N4CCNCC4)cc3)cnc2C)cc(OC)c1OC` [Compound 10, 1-(4-(6-methyl-5-(3,4,5-trimethoxyphenyl)pyridin-3-yl)phenyl)piperazine], for which the inhibition at 0.1 µM on BRK was determined as 7%; at PKC-α it was 2%; on SGK1 it was 2%; at PIM-2 it was 0%; at GRK7 it was 3%; at AXL, 1%. For the same compound, the inhibition at 1 µM at BRK stood at 36%; at PKC-α, 3%; on SGK1, 1%; at PIM-2 it was 0%; at GRK7, 4%; at AXL, 7%.
